Assay results from the supplement of paper PMC8183993.
Counter-ions that a name gives are not always drawn.

What was measured:
Conditions in all cases: 24 h
U2OS [1] = experiment: mean HPG incorporation (global translation) relative to DMSO (% of DMSO); higher = more protein synthesis
Protocol: (§1)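 Validation screen in U2OS cells: hits tested at 1, 3 and 10 uM for 24 h in duplicate plates. Translation was read by OPP incorporation (1 h pulse) and HPG incorporation (30 min in methionine-free medium), quantified by high-throughput microscopy alongside nuclei counts. All values are normalised to DMSO (= 100).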

U2OS [2] = experiment: nuclei count in HPG assay relative to DMSO (% of DMSO); higher = more viable cells
Protocol: as §1

U2OS [3] = experiment: nuclei count in OPP assay relative to DMSO (% of DMSO); higher = more viable cells
Protocol: as §1

U2OS [4] = experiment: mean OPP incorporation (global translation) relative to DMSO (% of DMSO); higher = more protein synthesis
Protocol: as §1

Row | Structure (SMILES) | mean HPG incorporation (U2OS [1]; 1 µM) | mean HPG incorporation (U2OS [1]; 3 µM) | mean HPG incorporation (U2OS [1]; 10 µM) | nuclei count in HPG assay (U2OS [2]; 1 µM) | nuclei count in HPG assay (U2OS [2]; 3 µM) | nuclei count in HPG assay (U2OS [2]; 10 µM) | nuclei count in OPP assay (U2OS [3]; 1 µM) | nuclei count in OPP assay (U2OS [3]; 3 µM) | nuclei count in OPP assay (U2OS [3]; 10 µM) | mean OPP incorporation (U2OS [4]; 1 µM) | mean OPP incorporation (U2OS [4]; 3 µM) | mean OPP incorporation (U2OS [4]; 10 µM)
1 | CCN(CC)CCOc1ccc(C(=C(Cl)c2ccccc2)c2ccccc2)cc1 [Clomiphene citrate (Z,E)] | 90.2 | 115 | 123 | 91.3 | 95.3 | 86.7 | 88 | 98.6 | 93.3 | 116 | 124 | 136
2 | C=CC[C@@H]1/C=C(\C)C[C@H](C)C[C@H](OC)[C@H]2O[C@@](O)(C(=O)C(=O)N3CCCC[C@H]3C(=O)O[C@H](/C(C)=C/[C@@H]3CC[C@@H](O)[C@H](OC)C3)[C@H](C)[C@@H](O)CC1=O)[C@H](C)C[C@@H]2OC [FK-506 (Tacrolimus)] | 121 | 125 | 133 | 102 | 98.7 | 99.9 | 98.7 | 100 | 93.3 | 115 | 123 | 134
3 | CC1=C(/C=C/C(C)=C/C=C/C(C)=C/C(=O)Nc2ccc(O)cc2)C(C)(C)CCC1 [Fenretinide] | 98.1 | 93.5 | 96.7 | 102 | 93.9 | 86.7 | 97.1 | 96.5 | 87.9 | 107 | 109 | 117
4 | C[C@]12CC[C@@H]3c4ccc(O)cc4C[C@@H](CCCCCCCCC[S+]([O-])CCCC(F)(F)C(F)(F)F)[C@H]3[C@@H]1CC[C@@H]2O (stereo partly specified) [Fulvestrant] | 118 | 125 | 115 | 97 | 101 | 89.1 | 98.7 | 96.4 | 93.8 | 115 | 123 | 115
5 | CC(=O)O[C@@H]1C[C@H]2C(C)(C)C(=O)C=C[C@]2(C)[C@H]2CC[C@@]3(C)[C@H](c4ccoc4)OC(=O)[C@H]4O[C@]43[C@@]21C [Gedunin] | 91.2 | 88.7 | 66.3 | 103 | 101 | 94.7 | 97.7 | 96.4 | 95.9 | 112 | 114 | 115
6 | CC(C)n1nc(-c2ccc3oc(N)nc3c2)c2c(N)ncnc21 [INK 128 (MLN0128)] | 32.9 | 29.4 | 28.2 | 76 | 80.6 | 72.8 | 79.2 | 68.8 | 69.8 | 28.2 | 29.2 | 30
7 | Cc1ccc(NC(=O)c2ccc(CN3CCN(C)CC3)cc2)cc1Nc1nccc(-c2cccnc2)n1 [Imatinib (STI571)] | 91.5 | 111 | 121 | 102 | 97.7 | 92.4 | 97.6 | 97.7 | 95.9 | 113 | 122 | 131
8 | N#CC(c1ccnc(NCCc2cccnc2)n1)c1nc2ccccc2s1 (stereo unspecified) [JNK Inhibitor V] | 122 | 133 | 85.5 | 105 | 93.9 | 77 | 104 | 94.1 | 79.9 | 122 | 127 | 110
9 | O=[N+]([O-])c1ccccc1S(=O)(=O)NCC1CCC(CNCC2CCc3ccccc3C2)CC1 (stereo unspecified) [NTNCB hydrochloride] | 98 | 104 | 56.8 | 95.8 | 90.7 | 87.6 | 101 | 98.3 | 74.4 | 106 | 115 | 110
10 | Cn1cc(-c2ccc3ncc(Cc4ccc5ncccc5c4)n3n2)cn1 [NVP-BVU972] | 114 | 132 | 138 | 107 | 85.5 | 88.5 | 104 | 79.7 | 89.8 | 91 | 107 | 124
11 | Cc1cn(-c2cc(NC(=O)c3ccc(C)c(Nc4nccc(-c5cccnc5)n4)c3)cc(C(F)(F)F)c2)cn1 [Nilotinib (AMN-107)] | 95 | 93.5 | 92.5 | 101 | 91.3 | 98.5 | 96.6 | 94.2 | 80.2 | 112 | 120 | 116
12 | O=C(Nc1ccc(OC(F)(F)F)cc1)c1sccc1NCc1ccnc2ccccc12 [OSI-930] | 93.9 | 92.7 | 64.2 | 96.9 | 98.1 | 92 | 98 | 89.7 | 91.2 | 99.3 | 101 | 114
13 | Cc1cc(CS(=O)(=O)c2ccccc2)cc(OCc2ccc(CN3CCC[C@@H]3CO)cc2)c1 [PF-543] | 97.1 | 81.9 | 89.6 | 102 | 99.2 | 92.2 | 104 | 98.9 | 94.3 | 111 | 117 | 130
14 | COc1ccccc1S(=O)(=O)Nc1ccc2c(c1)CN(C)C(=O)N2 [PFI-1] | 95.7 | 93.2 | 87 | 103 | 101 | 101 | 99.5 | 106 | 106 | 83.4 | 56.2 | 45.9
15 | Nc1ccc(-c2cccc3c(=O)cc(N4CCOCC4)oc23)cc1 [PI 828] | 73.5 | 64.3 | 41.5 | 108 | 94.6 | 85.2 | 101 | 89.8 | 81.9 | 92.1 | 83.1 | 54.1
16 | CC[C@@H]1/C=C(\C)C[C@H](C)C[C@H](OC)[C@H]2O[C@@](O)(C(=O)C(=O)N3CCCC[C@H]3C(=O)O[C@H](/C(C)=C/[C@@H]3CC[C@H](Cl)[C@H](OC)C3)[C@H](C)[C@@H](O)CC1=O)[C@H](C)C[C@@H]2OC [Pimecrolimus] | 108 | 113 | 99.6 | 103 | 101 | 92.5 | 101 | 106 | 95.5 | 125 | 123 | 124
17 | CCOc1cc(C(=O)Nc2ccc(Cl)c(-c3nc4ccccc4[nH]3)c2)cc(OCC)c1OCC [SANT-2] | 97.5 | 92.7 | 74.1 | 102 | 105 | 97.5 | 102 | 109 | 104 | 117 | 114 | 121
18 | Oc1ccc(Nc2nc(-c3ccc(Cl)cc3)cs2)cc1 [SKI II] | 92.6 | 79.3 | 55.7 | 99 | 88.9 | 72.6 | 88.5 | 85.3 | 75.2 | 91 | 83.5 | 69.5
